# Reference: patent publication US20120064505A1, “MEASUREMENT OF MATERIAL PROPERTIES AND RELATED METHODS AND COMPOSITIONS” (Massachusetts Institute of Technology, priority 2010, published 2012)
# “Also recorded” adds a separate entry of the source.
# Experiments:
# RBCs = assay: Deformability cytometer: velocity and passage of glutaraldehyde-treated RBCs; type: cell-based, human; settings: 30 minutes in PBS; about 0.61 Pa/μm; FIG. 5B
# From the text: A mold of the device was made on a silicon wafer using photolithography and reactive-ion etching techniques. A 5× reduction step-and-repeat projection stepper (Nikon NSR2005i9, Nikon Precision) was used for patterning. The spacing between pillars was 3 μm, and the depth of the device was 4.2 μm. The device was made using standard PDMS casting protocols and bonded to a glass slide.
# PBS was mixed with 0.2% w/v Pluronic F-108 (BASF, Mount Olive, N.J.) and 1% w/v Bovine Serum Albumin (BSA) (Sigma-Aldrich, St. Louis, Mo.) as a stock solution to prevent RBC adhesion to the device walls. For the fluorescent bead experiments, 200 nm FluoSpheres europium luminescent microspheres (Molecular Probes, Eugene, Oreg.) diluted to a final concentration of 1.25×10^−5 percent solids were used.
# In experiments involving blood, 1 μl of whole blood (−50% hematocrit) was diluted in 100 μl of the PBS-pluronic-BSA solution for all of the experiments. In experiments involving parasites that express GFP, no further treatment was performed. In experiments involving healthy RBCs, 1 μl of whole blood (Research Blood Components, Brighton, Mass.), 1 μl of 50 μg/ml of Cell Tracker Orange (Invitrogen, Carlsbad, Calif.), and 98 μl of PBS were mixed with the indicated concentration of glutaraldehyde and allowed to sit for 30 minutes. The sample was then washed 3 times with the PBS-Pluronic-BSA solution. […]
# [1] = test system: P. falciparum-infected RBCs (iRBCs) and co-cultured uninfected RBCs (uRBCs); assay: Microfluidic deformability cytometer: RBC mobility after artesunate treatment; type: cell-based, human; settings: for separation resolution between iRBCs and uRBCs: after drug treatment vs without
# Description: The deformability of both iRBCs and uRBCs were measured at 2, 4 and 6 hours after artesunate drug treatment (FIG. 60). A synchronized culture of rings with ˜15% parasitemia was resuspended at 0.1% hematocrit in malaria culture medium containing 0.01, 0.05 or 0.1 μg/ml of artesunate.
# Layout program CleWin3.0 was used to design the microfluidic device, which consists of a 500×500 μm^2 inlet reservoir, a 500×500 μm^2 outlet reservoir, and parallel capillary channels with triangular pillar arrays (FIG. 55A). Three different pore-size of 2.5, 3.0 and 4.0 μm were designed for the capillary channels to test optimum deformation condition for the experiment. A silicon mold of the device was made using standard silicon processing techniques. The photolithography step was done using a 5× reduction step-and-repeat projection stepper (Nikon NSR2005i9, Nikon Prevision) and reactive-ion etching (RIE) techniques were used to give the mold a final depth of 4.2 μm. Final device was then casted from the silicon mold using polydimethylsiloxane (PDMS) and was sealed by a glass slide using oxygen plasma.
# P. falciparum 3D7A parasites (from Malaria Research and Reference Reagent Source, American Type Culture Collection) were cultured in leukocyte-free human RBCs (Research Blood Components, Brighton Mass.) in RPMI 1640 complete medium as described (Trager and Jensen J. parasitol. 2005). Parasites cultures were synchronized by sorbitol lysis (Lambros, C 1979 J. parasitol.) two hours after merozoite invasion.
# 1× Phosphate buffered saline (PBS) was mixed with 1% w/v Bovine Serum Albumin (BSA) (Sigma-Aldrich, St. Louis, Mo.) as a stock solution and was fresh made on every experimental day. For experiments tracking fluid flow velocity, 200 nm FluoSpheres europium luminescent microspheres (Molecular Probes, Eugene, Oreg.) were used at a final concentration of 5.0×10^−[…] percent solids. For experiments involving only healthy RBCs, fresh whole blood (Research Blood Components, Brighton, Mass.) was used at 100 times dilution (i.e. 1 μl whole blood with 99 μl stock solution). For experiments involving parasitized cells, 1 ml of cultured cells were spun down at 1,000 rpm for 5 minute; 1 μl of the pellet was then aliquot to 200 μl stock solution.
# 10 μl of 1×10^−6M thiazole orange Orange (Invitrogen, Carlsbad, Calif.), which stains the RNA of the cell, was added to the aforementioned 200 μl iRBC solution 20 minutes before the experiment. The infected cells would appear fluorescent under the GFP filter set whereas the uninfected cells were seen as dark shadows.
# To control the ambient temperature, the microscope surface was replaced by a heating chamber (Olympus), which was preheated to a desired temperature range (i.e. 30-40° C.) for 30 minutes before the beginning of every experiment. […]
# [2] = test system: Acute promyelocytic leukemia cells; settings: differentiated down the neutrophil lineage for three days; cited from earlier work
# WAS−/− T cells [3] = assay: In vitro Transwell cell migration toward CCL19 (WAS−/−); type: cell-based, mouse; settings: seven hours of exposure to CCL19; 5-μm pore Transwell
# Description: (§1) Enriched WT and WAS−/− T cells in DMEM with 1% BSA and 0.1% Pen/Strep were induced to migrate through polycarbonate Transwell inserts (Costar, Cambridge, Mass.) with 5-μm pores in a 24-well plate toward a CCL19 chemokine source (R&D Systems, Minneapolis, Minn.). Inserts contained 5×10^5 cells in 100 μL of medium, and wells contained 1 mL of medium with either no CCL19 or 100 ng/mL of CCL19. Cells were allowed to migrate for ˜7 hours at 37° C., and those that crossed the membrane were collected and used for MPA studies.
# WAS−/− T cells [4] = assay: Micropipette aspiration of chemokine-stimulated migratory T cells (WAS−/−); type: cell-based, mouse; settings: naïve WAS−/− T cells that migrated toward CCL19 100 ng/mL, ~7 hours; mean+/−SD
# Description: (§2) Cells from the peripheral lymph nodes and the spleen of Balb/c mice and WAS−/− mice on Balb/c background were pooled and enriched using the EasySep Mouse CD8+ T Cell Enrichment Kit from STEMCELL Technologies (British Columbia, Canada). Enrichment was confirmed using fluorescence-activated cell sorting (FACS) by staining the cells with FITC/anti-Thy1.2 and PE/anti-CD8α antibodies (Abs). The'memory T cell population was assessed by evaluating the expression of CD44 and CD62L via FACS. T cells in an activation medium with 100 units/mL IL-2 and 1% anti-CD28 Ab were activated by plate-bound anti-CD3 Abs for 4 day at 37° C. The activation medium included RPMI with 10% FBS, 10 mM HEPES (1M), 1% NEAA, 1% sodium pyruvate (100 mM), 50 μM β-mercaptoethanol, 4 mM L-glutamine, and 100 μg/mL Pen/Strep. Cell activation was verified via FACS measurement of CD25.
# Micropipettes made using a micropipette puller were trimmed to 2.5-3 or 4.5-5 μm inner diameter for testing naïve and activated T cells. MPA glass chambers consisted of a 24 mm×60 mm microscope coverslip bottom, a U-shaped parafilm spacer, and a 22 mm×22 mm microscope coverslip top. The assembly was baked for two hours at 80° C. to ensure good adhesion between the components. […]
# 3×10^5 cells in 100 μL RPMI with 10% FBS and 1% HEPES was stained with 10 μL trypan blue. […] The cell movement in the micropipette was recorded with a CCD camera. […]
# WT T cells = assay: Micropipette aspiration of chemokine-stimulated migratory T cells (WT); type: cell-based, mouse
# Description: as §2
# Micropipettes made using a micropipette puller were trimmed to 2.5-3 or 4.5-5 μm inner diameter for testing naïve and activated T cells. MPA glass chambers consisted of a 24 mm×60 mm microscope coverslip bottom, a U-shaped parafilm spacer, and a 22 mm×22 mm microscope coverslip top. The assembly was baked for two hours at 80° C. to ensure good adhesion between the components.
# as §1
# 3×10^5 cells in 100 μL RPMI with 10% FBS and 1% HEPES was stained with 10 μL trypan blue. The mixture was added to 600 μL of either the RPMI medium or the T cell activation medium with IL-2 for naïve and activated T cell testing. […] The cell movement in the micropipette was recorded with a CCD camera. […]
molecule,measurement,setting,value
O=CCCCC=O [glutaraldehyde],RBC stiffness / velocity with increasing concentration,RBCs,progressively stiffer with decreasing velocity
C[C@H]1[C@H](OC(=O)CCC(=O)O)O[C@@H]2O[C@@]3(C)CC[C@H]4[C@H](C)CC[C@@H]1[C@@]24OO3 [artesunate],cell mobility change due to drug treatment,"[1]; FIG. 60, 2, 4 and 6 hours, 0.01 to 0.1 μg/ml",significant decrease in cell mobility
same,stiffening effect on iRBCs and uRBCs,[1]; after artesunate treatment,stiffening effect on both iRBCs and uRBCs; also recorded: both iRBCs and uRBCs stiffened considerably
same,separation resolution between iRBCs and uRBCs,[1],almost doubled
same,separation resolution between iRBCs and uRBCs,[1]; listed as Artesunate,doubled
CC1=C(/C=C/C(C)=C/C=C/C(C)=C/C(=O)O)C(C)(C)CCC1 [all-trans retinoic acid],compliance increase vs control,[2],45%
"CCL19: chemokine (R&D Systems) used as chemoattractant for T cells (protein, UniProt Q99731 22-98, looked up) C-C motif chemokine 19: GTNDAEDCCLSVTQKPIPGYIVRNFHYLLIKDGCRVPAVVFTTLRGRQLCAPPDQPWVERIIQRLQRTSAKMKRRSS",cells migrated,WAS−/− T cells [3],~6.4%
same,average apparent Young's modulus,WAS−/− T cells [4],152+/−102 Pa
same,reduction of modulus from the value in the absence of CCL19,WT T cells; migratory WT cells,more than 2 times
same,stiffness relative to activated cells,WT T cells; migratory WT cells vs activated WT T cells,about 1.4 times
same,average apparent Young's modulus,"WT T cells; naïve WT T cells that migrated toward CCL19 100 ng/mL, ~7 hours, mean+/−SD",128+/−33 Pa
